The target of test [1] is T1, angiotensin II (AII) receptors (Cavia porcellus, UniProt Q9WV26).
T1 construct: the source of cell surface membranes is the guinea pig adrenal gland; from tissue; host or cells: guinea pig adrenal gland, cell surface membrane fraction
T1 sequence (Q9WV26 1-359): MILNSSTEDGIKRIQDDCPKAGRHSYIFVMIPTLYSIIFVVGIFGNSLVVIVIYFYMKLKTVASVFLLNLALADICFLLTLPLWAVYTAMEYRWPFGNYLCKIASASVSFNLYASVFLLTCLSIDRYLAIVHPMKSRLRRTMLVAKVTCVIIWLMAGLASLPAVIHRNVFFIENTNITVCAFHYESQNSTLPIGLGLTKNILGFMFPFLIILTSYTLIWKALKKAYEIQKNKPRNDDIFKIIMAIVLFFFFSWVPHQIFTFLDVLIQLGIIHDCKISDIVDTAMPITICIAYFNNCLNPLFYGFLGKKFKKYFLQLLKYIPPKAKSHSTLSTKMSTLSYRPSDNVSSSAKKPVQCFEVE
Nature of the test: Test A: displacement of radiolabelled AII binding to cell surface membrane fraction from guinea pig adrenal gland. The following applies: guinea pig adrenal gland membranes, read-out: IC50 (concentration for 50% displacement of radiolabelled AII binding). On the procedure: This in vitro procedure involves the incubation of the test compound initially at a concentration of 100 micromolar (or less) in a buffered mixture containing fixed concentrations of radiolabelled AII and a cell surface membrane fraction prepared from a suitable angiotensin target tissue. In this test, the source of cell surface membranes is the guinea pig adrenal gland which is well known to respond to AII. Interaction of the radiolabelled AII with its receptors (assessed as radiolabel bound to the particulate membrane fraction following removal of unbound radiolabel by a rapid filtration procedure such as is standard in such studies) is antagonized by compounds which also bind to the membrane receptor sites and the degree of antagonism (observed in the test as displacement of membrane-bound radioactivity) is determined readily by comparing the receptor-bound radioactivity in the presence of the test compound at the specified test concentration with a control value determined in the absence of the test compound. Using this procedure compounds showing at least 50% displacement of radiolabelled AII binding at a concentration of 10^-4 M are retested at lower concentrations to determine their potency. […]

In test [2] the test system is pressor responses induced by AII. Nature of the test: Test C: antagonism of AII-induced pressor responses in terminally-anaesthetised or conscious rats. It counts as in vivo. The following applies: iv, rat, i.v. administration. On the procedure:
This in vivo test involves using terminally-anaesthetised or conscious rats in which an arterial catheter has been implanted under anaesthesia for the measurement of changes in blood pressure. The AII antagonistic effects of the test compound following oral or parenteral administration, are assessed against pressor responses induced by AII. To ensure that the effect is specific the effect of the test compound on vasopressin-induced pressor responses may also be determined in the same preparation.

As to `CCc1cc(OCc2ccc(-c3ccccc3-c3nnn[nH]3)cc2)c2nc(OC)ccc2n1.Cl` [Example 4, 2-ethyl-6-methoxy-4-[(2'-(1H-tetrazol-5-yl)-biphenyl-4-yl)methoxy]-1,5-naphthyridine hydrochloride], the IC50 in test [1] came to 20 nM. The 50% effective dose (ED50) – broadly, the dose at which the effect has come halfway, by size or by number of responders – in test [2] was found to be 0.6 mg/kg.

(Values after patent publication US5126344A, “Diazine derivatives and pharmaceutical use” (Imperial Chemical Industries PLC, priority 1989, dated 1992).)
